Usually IC50 stands for the point on the concentration scale where inhibition reaches its midpoint.

We go through six compounds from ChEMBL document CHEMBL4052737, “3-Oxo-γ-costic acid fungal-transformation generates eudesmane sesquiterpenes with in vitro tumor-inhibitory activity” (Bioorg Med Chem Lett, 2017).

Common to all, as to assay type: functional, cell-based
In experiment [1] the test system is Caco-2. The experiment can be described thus: Antiproliferative activity against human Caco2 cells after 48 hrs by MTT assay. The settings on record: for IC50: Caco-2, 48 h.
The subject of the next experiment is A549. The experiment can be described thus: Antiproliferative activity against human A549 cells after 48 hrs by MTT assay. The following applies: for IC50: A549, 48 h. Background: Tetrazolium assays rely on reduction of a dye to a coloured formazan, in cell work by metabolically active cells.
For experiment [2], the system named is Caco-2. Kind of experiment: Induction of morphological changes in human Caco2 cells assessed as cell shrinkage at 50 uM by bright field phase contrast microscopy.
Experiment [3] has as its system Caco-2. The experiment can be described thus: Induction of morphological changes in human Caco2 cells assessed as monolayer disruption at 50 uM by bright field phase contrast microscopy.

The structures appear in SMILES notation. Calls of active or inactive are those of the source. No cut-off for these calls is given here.

On to `C=C(C(=O)O)[C@@H]1CC[C@@]2(C)CCC(=O)C(C)=C2C1`, for which the Activity entry in the experiment with Caco-2 [1] and in the experiment with A549 was “Dose-dependent effect” throughout. In addition, the IC50 was 39 µM in the experiment with Caco-2 [1] and more than 100 µM in the experiment with A549. In addition, the outcome in the experiment with Caco-2 [2] and with Caco-2 [3] was Active.

On to `C=C(C(=O)O)[C@@H]1CC[C@@]2(C)C=C(O)C(=O)C(C)=C2C1`, for which, in the experiment with Caco-2 [1], the Activity entry is “Dose-dependent effect” and 46 µM corresponded to half-maximal inhibition (IC50). Further, in the experiment with A549, the Activity entry is “Dose-dependent effect” and the IC50 was more than 100 µM.

For `C=C(C(=O)O)[C@@H]1CC[C@@]2(C)C[C@H](O)C(=O)C(C)=C2C1`, in the experiment with Caco-2 [1], the Activity entry was “Dose-dependent effect” and the IC50 was determined as 60 µM. Further, in the experiment on A549, the Activity entry is “Dose-dependent effect” and the 50% inhibitory concentration (IC50) is more than 100 µM.

`C=C(C(=O)O)[C@@H]1CC[C@]2(C)C(=C(C)C(=O)C[C@H]2O)C1`: in the experiment with Caco-2 [1], the Activity result was “Dose-dependent effect” and the IC50 came out at 75 µM. Also, in the experiment on A549, the Activity result is “Dose-dependent effect” and the concentration for half-maximal inhibition (IC50) is more than 100 µM.

Take `C=C(C(=O)O)[C@@H]1CC[C@]2(C)C(=C(C)C(=O)[C@@H](O)[C@H]2O)C1`: in the experiment with Caco-2 [1], the Activity result is “Dose-dependent effect” and half-maximal inhibition (IC50) required 66 µM. Besides, in the experiment on A549, the Activity result is “Dose-dependent effect” and the IC50 stood at 74 µM.

As to `C=C(C(=O)O)[C@@H]1CC[C@@]2(C)C=CC(=O)C(C)=C2C1`, in the experiment with Caco-2 [1], the Activity entry is “Dose-dependent effect” and inhibition was half-maximal at 66 µM (IC50). In the experiment on A549, the Activity result is “Dose-dependent effect” and the IC50 is more than 100 µM.
